One assay concerns P. falciparum TM90-C2B. Briefly: microbe, parasite or virus in culture. In kind it is cell-based. The settings on record: Plasmodium falciparum, TM90, read-out: EC50 TM90-C2B.
The subject of another assay is J774 cell lines. Briefly: cytotoxicity in J774 cells, 96 well plate format. Format: cell-based. The conditions noted are these: Mus musculus, J774, read-out: EC50 J774 (internal controls).
For assay [1], the system named is P. berghei / P. cynomolgi infections. The conditions noted are these: cited from earlier work.
For assay [2], the system named is Plasmodium berghei-GFP parasites. In words: modified Thompson test in mice. The settings on record: 10 mg/kg oral on days 3, 4, 5 in HEC/Tween; vs untreated control animals.
In the next assay the test system is P. berghei sporozoites. In kind it is cell-based. The conditions noted are these: for LBI (TM90-C2B/Pb): liver blood index LBI = TM90-C2B/Pb; for LBI (W2/Pb): liver blood index LBI = W2/Pb.

We go through 12 molecules from article PMC9233739 (Journal of medicinal chemistry, 2016).

A value given as a limit tells only on which side of the number the result lay.

Consider `O=C1C(O)=C([C@H]2CC[C@H](c3ccc(Cl)cc3)CC2)C(=O)c2ccccc21` [ATO, atovaquone], for which the EC50 in the assay with P. falciparum TM90-C2B was found to be 0.0184 µM; with J774 cell lines, 23.8 µM.
`CCN(CC)CCCC(C)Nc1ccnc2cc(Cl)ccc12` (stereo not shown) [CQ, Chloroquine]: the concentration giving a half-maximal response (EC50) in the assay on J774 cell lines came out at 47.2 µM.
As to `CCCCc1cc2c(=O)c(C(=O)OC)c[nH]c2cc1OCCOc1ccccc1` [Compound 6b], the “dose producing radical cures” value in assay [1] is on record as 15 mg/kg. In addition, the “Inhibition (%) Day 6 PE” value in assay [2] is listed as less than 1%.
For the molecule `COC(=O)c1c[nH]c2cc(OCCCc3ccccc3)ccc2c1=O` [Compound 6j], the “LBI (TM90-C2B/Pb)” value in the assay with P. berghei sporozoites is listed as more than 149.
In the case of `COC(=O)c1c[nH]c2cc(F)ccc2c1=O` [Compound 6n], in the assay on P. berghei sporozoites, the “LBI (TM90-C2B/Pb)” value was less than 3.95 and the “LBI (W2/Pb)” value is less than 0.262.
Consider `COC(=O)c1c[nH]c2ccc(OC)cc2c1=O` [Compound 6o], for which, in the assay on P. berghei sporozoites, the “LBI (TM90-C2B/Pb)” value is listed as more than 134.
As to `COC(=O)c1c[nH]c2ccc(-c3ccccc3)cc2c1=O` [Compound 6u], in the assay with P. berghei sporozoites, the “LBI (TM90-C2B/Pb)” value is listed as less than 40.1 and the “LBI (W2/Pb)” value was less than 11.7.
As to `CCCc1cc2c(=O)c(C(=O)OC)c[nH]c2cc1OCCOc1ccccc1` [Compound 6x], in the assay on P. berghei sporozoites, the “LBI (TM90-C2B/Pb)” value is recorded as more than 707 and the “LBI (W2/Pb)” value was more than 2.62.
The like results for `CCCCCc1cc2c(=O)c(C(=O)OC)c[nH]c2cc1OCCOc1ccccc1` [Compound 6y] were, in that order, more than 123 and more than 0.33.
The like results for `O=c1cc[nH]c2cc(OCCOc3ccccc3)ccc12` [Compound 8a] were, in that order, less than 21.7 and less than 16.8.
With `CCCCc1ccc2[nH]ccc(=O)c2c1` [Compound 8c], the “LBI (TM90-C2B/Pb)” value in the assay on P. berghei sporozoites is more than 31.4.
Regarding `C[C@H]1[C@@H](O)O[C@@H]2O[C@@]3(C)CC[C@H]4[C@H](C)CC[C@@H]1[C@@]24OO3` [DHA, dihydroartemisinin], in the assay with J774 cell lines, the 50% effective concentration (EC50) was 1.53 µM.

One may read the EC50 as the concentration at which the effect is half-maximal.
